Experiment: Cyclic voltammetry (CV) in acetonitrile
Assay type: physicochemical
Conditions: 0.1 M TBA-PF6, glassy carbon electrode, 50 mV.s^−1, Ag wire coated with AgCl reference, 1 mM
Experimental: FIG. 6: Cyclic voltammetry (CV) measurements conducted in acetonitrile using 0.1 M of TBA-PF6 as the electrolyte. All the measurements were conducted at a scan rate of 50 mV.s^−1 using a glassy carbon (Ø=3 mm) electrode as a working electrode, Pt wire as a counter electrode and Ag wire coated with AgCl as a reference electrode. (A) Voltammogram of a 1 mM ferroceneacetic acid solution (B) voltammogram of a 1 mM phospholipid 2 solution. (C) Voltammogram of a 1 mM phospholipid 3 solution.
FIG. 14: (A) Synthesis of Fc-DSP (3) from ferroceneacetic acid (1) and DSPE (2) using a detailed reaction and another graphical representation that are used in FIGS. 15-17 (B) CV measurements conducted in acetonitrile using 0.1 M of TBA-PF6 as the electrolyte. All measurements were conducted at a scan rate of 50 mV.s^−1 using a glassy carbon (Ø=3 mm) electrode as a working electrode, Pt wire as a counter electrode and Ag wire coated with AgCl as a reference electrode. (black) Voltammogram of a 1 mM phospholipid 2 solution. (red) Voltammogram of 1 mM phospholipid 3 solution.
Cyclic voltammetry (CV) and scanning electrochemical microscopy (SECM) measurements were performed with an HEKA Electrochemical Probe Scanner 3 or Probe Scanner 1 (HEKA Elektronik Dr. Schulze GmbH, Germany). […]

ferroceneacetic acid [compound 1]
reversible oxidation reduction of the ferrocene (potential): 0.42 V

— US20180016289A1, “REDOX-SENSITIVE VESICLES” (THE ROYAL INSTITUTION FOR THE ADVANCEMENT OF …, priority 2015, published 2018)
